Data reported in US4175081A, “5-Substituted thiadiazole ureas” (priority 1977, dated 1979).

Legend:
Johnson grass (JG) [1] = experiment: Pre-emergence herbicide test; format: in vivo, Sorgum helepense; conditions: Sorghum halepense, 336 h, two weeks after treatment; for pest or weed control at 8966.8 g/ha: 8 lb/acre
Procedure, shortened: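 Pots seeded one day before spraying; compound applied pre-emergence at 8 lbs/acre (or 4 lbs/acre) in 38 gallons/acre spray volume. Sub-irrigated in greenhouse; injury/control rated visually two weeks after treatment.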

Bean (BN) [2] = experiment: Pre-emergence herbicide test; format: in vivo, Phaseolus vulgaris var. Black Valentine; conditions: Phaseolus vulgaris, 336 h, two weeks after treatment; for pest or weed control at 8966.8 g/ha: 8 lb/acre
Procedure, shortened: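 Black Valentine bean was seeded in potting soil one day before spraying. Compound was applied pre-emergence at 8 lbs/acre (also 4 lbs/acre) in 38 gallons per acre. Plants were sub-irrigated and injury or control was rated visually after two weeks.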

Amaranth pigweed (PW) [3] = experiment: Pre-emergence herbicide test; format: in vivo, Amaranthus retroflexus; conditions: 336 h, two weeks after treatment; for pest or weed control at 8966.8 g/ha: 8 lb/acre
Procedure, shortened: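 Pigweed was surface-seeded in potted soil one day before spraying at 8 lbs compound per acre, or 4 lbs/acre, in 38 gallons per acre. Pots were kept in the greenhouse with sub-irrigation only; injury or control was rated visually two weeks after treatment.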

Corn (CN) [4] = experiment: Pre-emergence herbicide test; format: in vivo; conditions: Zea mays, 336 h, two weeks after treatment; for pest or weed control at 8966.8 g/ha: 8 lb/acre
Procedure, shortened: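 Four corn seeds per pot, sown at seed-diameter depth one day before spraying, got soil surface treatment at 8 lbs/acre (4 lbs/acre formulations also prepared) in 38 gallons/acre. Pots were greenhouse-held with sub-irrigation only. Injury or control was scored visually two weeks after treatment.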

Cotton (CT) [5] = experiment: Pre-emergence herbicide test; format: in vivo, Gossypium hirsutum var. DPL smooth leaf; conditions: Gossypium hirsutum, 336 h, two weeks after treatment; for pest or weed control at 8966.8 g/ha: 8 lb/acre
Procedure, shortened: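 Crop and weed species seeded one day before treatment, then sprayed pre-emergence at 8 lbs actual compound per acre (also 4 lbs/acre formulations) in 38 gallons per acre. Pots kept in greenhouse with sub-irrigation only; injury or control visually rated two weeks after treatment.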

Corn (CN) [6] = experiment: Post-emergence herbicide test; format: in vivo; conditions: Zea mays, 336 h, two weeks after treatment; for pest or weed control at 8966.8 g/ha: 8 lb/acre
Procedure, shortened: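 Greenhouse seedlings grown in potting soil and sprayed post-emergence at 8 lbs compound/acre (formulations also made for 4 lbs/acre) in 38 gallons/acre spray volume. Watering by sub-irrigation only. Injury or control rated visually two weeks after treatment.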

Cotton (CT) [7] = experiment: Post-emergence herbicide test; format: in vivo, Gossypium hirsutum var. DPL smooth leaf; conditions: Gossypium hirsutum, post-emergence, 336 h, two weeks after treatment; for pest or weed control at 8966.8 g/ha: 8 lb/acre
Procedure, shortened: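 Cotton (Gossypium hirsutum var. DPL smooth leaf) was grown in 3' plastic pots of potting soil, four seeds per pot, planted at a depth equal to the seed diameter and watered by sub-irrigation. At the stage of expanded cotyledons with the first true leaf 1' long, plants were sprayed post-emergence in a hood with a fixed nozzle over a moving belt. Percent control was rated visually two weeks later.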

Turnip (TP) [8] = experiment: Pre-emergence herbicide test; format: in vivo, Brassica sp.; conditions: Brassica rapa, pre-emergence, 336 h, two weeks after treatment; for pest or weed control at 8966.8 g/ha: 8 lb/acre
Procedure, shortened: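 Turnip (Brassica sp.) seeds were surface sown in 3' plastic pots of potting soil, covered with a thin layer of screened soil, and sub-irrigated in greenhouse trays. Pots were seeded one day ahead of treatment, sprayed pre-emergence under a hood with a fixed nozzle and moving belt, then kept in the greenhouse.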

Barnyard grass (BG) [9] = experiment: Post-emergence herbicide test; format: in vivo; conditions: Echinochloa crus-galli, 336 h, two weeks after treatment
Procedure, shortened: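 Greenhouse pot-grown barnyard grass seedlings sprayed post-emergence at 8 lbs active compound per acre (some at 4 lbs/acre) in 38 gallons per acre, then sub-irrigated. Injury or control rated visually two weeks after treatment.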

Crabgrass (CG) [10] = experiment: Pre-emergence herbicide test; format: in vivo, Digitaria sanquinalis; conditions: Digitaria sanguinalis, pre-emergence, 336 h, two weeks after treatment; for pest or weed control at 8966.8 g/ha: 8 lb/acre
Procedure, shortened: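 Crabgrass (Digitaria sanquinalis) was surface seeded in 3' plastic pots of potting soil, covered with screened soil, and watered by sub-irrigation in greenhouse trays. Pots were seeded one day before spraying in a hood with a moving belt and fixed nozzle. Plants stayed in the greenhouse on sub-irrigation, and pre-emergence control was rated visually two weeks after treatment.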

Crabgrass (CG) [11] = experiment: Post-emergence herbicide test; format: in vivo, Digitaria sanquinalis; conditions: Digitaria sanguinalis, post-emergence, 336 h, two weeks after treatment; for pest or weed control at 8966.8 g/ha: 8 lb/acre
Procedure, shortened: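 Crabgrass (Digitaria sanquinalis) was surface seeded individually in 3' plastic pots of potting soil, covered with screened soil, and watered by sub-irrigation in greenhouse trays. Planting was staggered so seedlings reached the target stage together. Post-emergence sprays were applied in a hood with a removable belt and fixed nozzle, and control was visually rated two weeks after treatment.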

Amaranth pigweed (PW) [12] = experiment: Post-emergence herbicide test; format: in vivo, Amaranthus retroflexus; conditions: 336 h, two weeks after treatment; for pest or weed control at 8966.8 g/ha: 8 lb/acre
Protocol: Amaranth pigweed (PW)--Amaranthus retroflexus
All crop and weed species were planted individually in 3' plastic pots containing potting soil. Four seeds each of corn, cotton, and snapbeans were seeded to a depth equal to the diameter of the seed. All other species were surface seeded and sprinkled with screened soil in an amount sufficient to cover the seed. Immediately after planting, all pots were watered by sub-irrigation in greenhouse trays. Pots for the pre-emergence phase were seeded one day before treatment.
Planting dates for the post-emergence phase were varied so that all seedlings would reach the desired stage of development simultaneously. The proper stage of seedling development for treatment in the post-emergence phase is as follows:
Pigweed and turnips: 1 or 2 true leaves above visible cotyledons.
Compounds were tested at rates of application equivalent to 8 lbs. of actual compound per acre in a spray volume of 38 gallons per acre. Spray hood constants required to deliver the above volume are as follows:
Formulations for spray applications were prepared in 50 ml volumes with the following three components:
Formulations for the 4 lbs/acre rate were prepared by adjusting the amount of active ingredient accordingly.
Spray applications were made in a hood containing a removable belt and fixed spray nozzle. For passage through the spray hood, one pot of each specie (pre-emergence phase) was placed on the rear half of the flat. Treatments were removed to the greenhouse after spraying. Watering during the observation period was done only by sub-irrigation.
Two weeks after treatment, pre- and post-emergence injury or control was visually rated, and the results were as shown in the following tables. Pre-emergence data are provided in TABLE III and post-emergence data are provided in TABLE IV, for compounds having the formula illustrated in TABLE I. Correspondingly, pre-emergence and post-emergence data, respectively, are set forth in TABLES V AND VI, for compounds having the formula illustrated in TABLE II.

Turnip (TP) [13] = experiment: Post-emergence herbicide test; format: in vivo, Brassica sp.; conditions: Brassica rapa, post-emergence, 336 h, two weeks after treatment; for pest or weed control at 8966.8 g/ha: 8 lb/acre
Procedure, shortened: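 A greenhouse post-emergence herbicide test on turnip. Seeds were sown on the surface of potting soil in 3' plastic pots, lightly covered with screened soil and watered from below. Planting was timed so seedlings had 1 or 2 true leaves above the cotyledons at spraying, done in a hood with a fixed nozzle. Control or injury was scored by eye after two weeks.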

Barnyard grass (BG) [14] = experiment: Pre-emergence herbicide test; format: in vivo; conditions: Echinochloa crus-galli, 336 h, two weeks after treatment
Procedure, shortened: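 Barnyard grass surface-seeded in potting soil and sprayed pre-emergence one day after seeding, at 8 or 4 lb compound/acre in 38 gal/acre spray volume. Pots kept in greenhouse with sub-irrigation only; injury or control rated visually two weeks after treatment.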

Johnson grass (JG) [15] = experiment: Post-emergence herbicide test; format: in vivo, Sorgum helepense; conditions: Sorghum halepense, 336 h, two weeks after treatment; for pest or weed control at 8966.8 g/ha: 8 lb/acre
Procedure, shortened: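 Greenhouse pot-grown seedlings sprayed post-emergence at 8 lbs compound per acre (some at 4 lbs/acre) in 38 gallons per acre spray volume. Sub-irrigated thereafter. Injury/control rated visually two weeks after treatment.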

Bean (BN) [16] = experiment: Post-emergence herbicide test; format: in vivo, Phaseolus vulgaris var. Black Valentine; conditions: Phaseolus vulgaris, post-emergence, 336 h, two weeks after treatment; for pest or weed control at 8966.8 g/ha: 8 lb/acre
Procedure, shortened: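 Snapbean (Phaseolus vulgaris var. Black Valentine) was tested post-emergence. Four seeds were sown in 3' plastic pots of potting soil at a depth equal to the seed diameter, then sub-irrigated in greenhouse trays. Planting dates were staggered so plants were sprayed once primary leaves had expanded, with the growing point at the primary leaf nodes.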

`CCCSc1nnc(N(C)C(=O)NC)s1` [Example 69] was tested, and the pest or weed control at 2241.7 g/ha (Johnson grass (JG) [1]; 2 lb/acre) was 20%, the pest or weed control at 4483.4 g/ha (Johnson grass (JG) [1]; 4 lb/acre) was 40% and the pest or weed control at 8966.8 g/ha (Johnson grass (JG) [1]) was 70%. The pest or weed control at 2241.7 g/ha (Bean (BN) [2]; 2 lb/acre) was 0%, the pest or weed control at 4483.4 g/ha (Bean (BN) [2]; 4 lb/acre) was 0% and the pest or weed control at 8966.8 g/ha (Bean (BN) [2]) was 100%. It also gave a pest or weed control at 4483.4 g/ha (Amaranth pigweed (PW) [3]; 4 lb/acre) of 100%, a pest or weed control at 8966.8 g/ha (Amaranth pigweed (PW) [3]) of 100% and a pest or weed control at 2241.7 g/ha (Corn (CN) [4]; 2 lb/acre) of 30%. The pest or weed control at 4483.4 g/ha (Corn (CN) [4]; 4 lb/acre) was 0%, the pest or weed control at 8966.8 g/ha (Corn (CN) [4]) was 50% and the pest or weed control at 2241.7 g/ha (Cotton (CT) [5]; 2 lb/acre) was 50%. The pest or weed control at 4483.4 g/ha (Cotton (CT) [5]; 4 lb/acre) was 30%, the pest or weed control at 8966.8 g/ha (Cotton (CT) [5]) was 90% and the pest or weed control (Corn (CN) [6]; 2 lb/acre) was 80%. For the same compound, the pest or weed control at 4483.4 g/ha (Corn (CN) [6]; 4 lb/acre) was 50%, the pest or weed control at 8966.8 g/ha (Corn (CN) [6]) was 100% and the pest or weed control at 2241.7 g/ha (Cotton (CT) [7]; 2 lb/acre) was 100%. It also gave a pest or weed control at 4483.4 g/ha (Cotton (CT) [7]; 4 lb/acre) of 100%, a pest or weed control at 8966.8 g/ha (Cotton (CT) [7]) of 100% and a pest or weed control at 2241.7 g/ha (Turnip (TP) [8]; 2 lb/acre) of 90%. It also gave a pest or weed control at 4483.4 g/ha (Turnip (TP) [8]; 4 lb/acre) of 50%, a pest or weed control at 8966.8 g/ha (Turnip (TP) [8]) of 100% and a pest or weed control at 2241.7 g/ha (Barnyard grass (BG) [9]; 2 lb/acre) of 90%. For the same compound, the pest or weed control at 4483.4 g/ha (Barnyard grass (BG) [9]; 4 lb/acre) was 80%, the pest or weed control (Crabgrass (CG) [10]; 2 lb/acre) was 90% and the pest or weed control at 4483.4 g/ha (Crabgrass (CG) [10]; 4 lb/acre) was 90%. The pest or weed control at 8966.8 g/ha (Crabgrass (CG) [10]) was 100%, the pest or weed control (Crabgrass (CG) [11]; 2 lb/acre) was 100% and the pest or weed control at 4483.4 g/ha (Crabgrass (CG) [11]; 4 lb/acre) was 90%. For the same compound, the pest or weed control at 8966.8 g/ha (Crabgrass (CG) [11]) was 100%, the pest or weed control at 4483.4 g/ha (Amaranth pigweed (PW) [12]; 4 lb/acre) was 100% and the pest or weed control at 8966.8 g/ha (Amaranth pigweed (PW) [12]) was 100%. The pest or weed control at 2241.7 g/ha (Turnip (TP) [13]; 2 lb/acre) was 100%, the pest or weed control at 4483.4 g/ha (Turnip (TP) [13]; 4 lb/acre) was 100% and the pest or weed control at 8966.8 g/ha (Turnip (TP) [13]) was 100%. For the same compound, the pest or weed control at 2241.7 g/ha (Barnyard grass (BG) [14]; 2 lb/acre) was 40%, the pest or weed control at 4483.4 g/ha (Barnyard grass (BG) [14]; 4 lb/acre) was 60% and the pest or weed control (Johnson grass (JG) [15]; 2 lb/acre) was 70%. The pest or weed control at 4483.4 g/ha (Johnson grass (JG) [15]; 4 lb/acre) was 80%, the pest or weed control at 8966.8 g/ha (Johnson grass (JG) [15]) was 100% and the pest or weed control at 2241.7 g/ha (Bean (BN) [16]; 2 lb/acre) was 100%. The pest or weed control at 4483.4 g/ha (Bean (BN) [16]; 4 lb/acre) was 100% and the pest or weed control at 8966.8 g/ha (Bean (BN) [16]) was 100%.

`CNC(=O)Nc1nnc(SCc2ccc(Cl)cc2)s1` [Example 87] gave a pest or weed control at 8966.8 g/ha (Johnson grass (JG) [1]) of 20%, a pest or weed control at 8966.8 g/ha (Bean (BN) [2]) of 100% and a pest or weed control at 8966.8 g/ha (Amaranth pigweed (PW) [3]) of 70%. The pest or weed control at 8966.8 g/ha (Corn (CN) [4]) was 10%, the pest or weed control at 8966.8 g/ha (Cotton (CT) [5]) was 50% and the pest or weed control at 8966.8 g/ha (Corn (CN) [6]) was 10%. For the same compound, the pest or weed control at 8966.8 g/ha (Cotton (CT) [7]) was 70%, the pest or weed control at 8966.8 g/ha (Turnip (TP) [8]) was 10% and the pest or weed control at 8966.8 g/ha (Barnyard grass (BG) [9]; 8 lb/acre) was 20%. For the same compound, the pest or weed control at 8966.8 g/ha (Crabgrass (CG) [10]) was 10%, the pest or weed control at 8966.8 g/ha (Crabgrass (CG) [11]) was 20% and the pest or weed control at 8966.8 g/ha (Amaranth pigweed (PW) [12]) was 40%. For the same compound, the pest or weed control at 8966.8 g/ha (Turnip (TP) [13]) was 60%, the pest or weed control at 8966.8 g/ha (Barnyard grass (BG) [14]; 8 lb/acre) was 20% and the pest or weed control at 8966.8 g/ha (Johnson grass (JG) [15]) was 10%. The pest or weed control at 8966.8 g/ha (Bean (BN) [16]) was 100%.
